Experimental data reported in patent US7745437B2, “Compounds and compositions as protein kinase inhibitors” (IRM LLC, priority 2004, dated 2010).

What was measured:
FLT3 = biological target: T1, FLT3 (Homo sapiens, UniProt P36888, cells depend on it, form not given); experiment: FLT3 (Cellular Assay), Ba/F3-FLT3-ITD cell proliferation; format: cell-based; conditions: read-out: IC50 for FLT3
T1 sequence (P36888 1-993): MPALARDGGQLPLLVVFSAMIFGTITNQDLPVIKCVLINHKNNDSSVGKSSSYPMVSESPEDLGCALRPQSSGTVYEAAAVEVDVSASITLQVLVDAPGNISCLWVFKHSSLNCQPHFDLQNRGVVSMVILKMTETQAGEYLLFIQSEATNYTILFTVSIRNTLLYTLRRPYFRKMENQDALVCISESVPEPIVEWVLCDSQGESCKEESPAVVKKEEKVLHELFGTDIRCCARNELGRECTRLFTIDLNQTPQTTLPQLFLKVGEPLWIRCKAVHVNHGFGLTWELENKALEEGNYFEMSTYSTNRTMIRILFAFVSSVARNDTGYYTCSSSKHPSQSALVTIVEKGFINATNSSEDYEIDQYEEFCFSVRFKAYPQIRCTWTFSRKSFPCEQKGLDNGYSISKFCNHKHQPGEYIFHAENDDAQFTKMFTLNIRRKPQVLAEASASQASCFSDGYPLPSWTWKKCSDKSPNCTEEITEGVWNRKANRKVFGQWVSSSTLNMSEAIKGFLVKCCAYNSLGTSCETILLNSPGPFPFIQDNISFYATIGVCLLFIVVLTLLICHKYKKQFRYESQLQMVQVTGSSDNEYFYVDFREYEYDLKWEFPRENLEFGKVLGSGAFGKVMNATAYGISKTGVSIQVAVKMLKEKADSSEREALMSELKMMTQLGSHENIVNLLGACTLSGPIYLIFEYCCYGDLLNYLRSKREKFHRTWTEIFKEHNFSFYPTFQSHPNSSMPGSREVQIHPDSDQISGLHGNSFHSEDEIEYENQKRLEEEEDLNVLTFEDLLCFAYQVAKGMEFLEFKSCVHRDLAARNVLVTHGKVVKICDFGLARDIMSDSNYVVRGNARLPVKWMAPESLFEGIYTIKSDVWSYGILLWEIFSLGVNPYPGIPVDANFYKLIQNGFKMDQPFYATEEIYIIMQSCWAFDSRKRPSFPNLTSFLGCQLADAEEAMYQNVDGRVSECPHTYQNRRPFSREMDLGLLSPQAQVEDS

PDGFRβ = biological target: T2, PDGFRβ (Homo sapiens, UniProt P09619); experiment: PDGFRβ (Cellular Assay), Ba/F3-Tel-PDGFRβ cell proliferation; format: cell-based; conditions: Ba/F3-Tel-PDGFRβ cells; read-out: IC50 for PDGFRβ
T2 construct: fused on or other part: P41212 (Transcription factor ETV6)

FGFR3 [1] = biological target: T3, FGFR3 (Homo sapiens, UniProt P22607); experiment: FGFR3 (Cellular Assay), Ba/F3-TEL-FGFR3 cell proliferation; format: cell-based; design: fused on or other part: P41212 (Transcription factor ETV6); conditions: Ba/F3-TEL-FGFR3 cells, 48 hours; read-out: IC50 for the FGFR3 cellular assay
Protocol: Compounds of the invention are tested for their ability to inhibit transformed Ba/F3-TEL-FGFR3 cells proliferation, which is depended on FGFR3 cellular kinase activity. Ba/F3-TEL-FGFR3 are cultured up to 800,000 cells/mL in suspension, with RPMI 1640 supplemented with 10% fetal bovine serum as the culture medium. Cells are dispensed into 384-well format plate at 5000 cell/well in 50 μL culture medium. Compounds of the invention are dissolved and diluted in dimethylsufoxide (DMSO). Twelve points 1:3 serial dilutions are made into DMSO to create concentrations gradient ranging typically from 10 mM to 0.05 μM. Cells are added with 50 nL of diluted compounds and incubated for 48 hours in cell culture incubator. AlamarBlue® (TREK Diagnostic Systems), which can be used to monitor the reducing environment created by proliferating cells, are added to cells at final concentration of 10%. After additional four hours of incubation in a 37° C. cell culture incubator, fluorescence signals from reduced AlamarBlue® (Excitation at 530 nm, Emission at 580 nm) are quantified on Analyst GT (Molecular Devices Corp.). IC50 values are calculated by linear regression analysis of the percentage inhibition of each compound at 12 concentrations.
Target sequence in this assay (P22607 472-761 limits assumed, change not shown): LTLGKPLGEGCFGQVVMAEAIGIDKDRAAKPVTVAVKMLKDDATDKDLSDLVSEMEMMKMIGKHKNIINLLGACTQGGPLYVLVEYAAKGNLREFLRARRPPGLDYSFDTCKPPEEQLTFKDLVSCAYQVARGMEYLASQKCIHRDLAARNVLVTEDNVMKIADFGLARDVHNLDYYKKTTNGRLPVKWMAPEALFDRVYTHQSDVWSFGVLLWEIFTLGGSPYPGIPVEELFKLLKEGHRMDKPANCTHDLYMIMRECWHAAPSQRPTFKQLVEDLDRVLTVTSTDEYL

FGFR3 [2] = biological target: T3, FGFR3; experiment: FGFR3 (Enzymatic Assay), HTRF; format: biochemical; design: purchased Upstate; conditions: purified FGFR3, 3 μM ATP; read-out: IC50 for the FGFR3 enzyme assay
Protocol: Kinase activity assay with purified FGFR3 (Upstate) is carried out in a final volume of 10 μL containing 0.25 μg/mL of enzyme in kinase buffer (30 mM Tris-HCl pH7.5, 15 mM MgCl2, 4.5 mM MnCl2, 15 μM Na3VO4 and 50 μg/mL BSA), and substrates (5 μg/mL biotin-poly-EY (Glu, Tyr) (CIS-US, Inc.) and 3 μM ATP). Two solutions are made: the first solution of 5 μl contains the FGFR3 enzyme in kinase buffer was first dispensed into 384-format ProxiPlate® (Perkin-Elmer) followed by adding 50 nL of compounds dissolved in DMSO, then 5 μl of second solution contains the substrate (poly-EY) and ATP in kinase buffer was added to each wells. The reactions are incubated at room temperature for one hour, stopped by adding 10 μL of HTRF detection mixture, which contains 30 mM Tris-HCl pH7.5, 0.5 M KF, 50 mM ETDA, 0.2 mg/mL BSA, 15 μg/mL streptavidin-XL665 (CIS-US, Inc.) and 150 ng/mL cryptate conjugated anti-phosphotyrosine antibody (CIS-US, Inc.). After one hour of room temperature incubation to allow for streptavidin-biotin interaction, time resolved florescent signals are read on Analyst GT (Molecular Devices Corp.). IC50 values are calculated by […] analysis of the percentage inhibition of each compound at 12 concentrations (1:3 dilution from 50 μM to 0.28 nM).
Target sequence in this assay (P22607 23-806): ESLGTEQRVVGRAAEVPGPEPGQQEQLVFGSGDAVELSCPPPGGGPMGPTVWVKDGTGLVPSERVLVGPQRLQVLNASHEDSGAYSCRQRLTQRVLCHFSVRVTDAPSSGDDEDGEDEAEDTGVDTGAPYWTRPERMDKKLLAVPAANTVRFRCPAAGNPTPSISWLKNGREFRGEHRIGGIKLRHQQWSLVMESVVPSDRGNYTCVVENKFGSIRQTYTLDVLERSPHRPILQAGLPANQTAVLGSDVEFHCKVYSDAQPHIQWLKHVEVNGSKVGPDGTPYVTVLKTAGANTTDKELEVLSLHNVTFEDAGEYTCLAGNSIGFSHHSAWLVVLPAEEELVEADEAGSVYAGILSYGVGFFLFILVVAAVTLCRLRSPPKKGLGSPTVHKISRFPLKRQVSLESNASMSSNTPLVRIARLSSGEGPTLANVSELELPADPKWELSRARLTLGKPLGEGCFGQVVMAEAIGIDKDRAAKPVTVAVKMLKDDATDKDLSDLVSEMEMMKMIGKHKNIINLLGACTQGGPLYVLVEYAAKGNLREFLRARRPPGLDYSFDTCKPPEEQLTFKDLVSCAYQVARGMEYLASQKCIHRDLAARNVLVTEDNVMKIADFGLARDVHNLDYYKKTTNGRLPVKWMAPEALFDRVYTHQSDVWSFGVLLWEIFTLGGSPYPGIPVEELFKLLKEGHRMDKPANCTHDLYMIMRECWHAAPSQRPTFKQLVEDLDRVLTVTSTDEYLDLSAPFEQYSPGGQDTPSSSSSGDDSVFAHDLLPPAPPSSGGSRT

M351T Bcr-abl = biological target: T4, M351T Bcr-abl (Homo sapiens, UniProt P00519, M351T); experiment: Proliferation of Ba/F3 cells expressing mutant Bcr-abl M351T; format: cell-based
T4 construct: expressed in transfected cells; host or cells: Ba/F3; the other entry of the earlier key: BCR (P11274, Breakpoint cluster region protein)
T4 sequence (P00519 242-493 M351T limits assumed): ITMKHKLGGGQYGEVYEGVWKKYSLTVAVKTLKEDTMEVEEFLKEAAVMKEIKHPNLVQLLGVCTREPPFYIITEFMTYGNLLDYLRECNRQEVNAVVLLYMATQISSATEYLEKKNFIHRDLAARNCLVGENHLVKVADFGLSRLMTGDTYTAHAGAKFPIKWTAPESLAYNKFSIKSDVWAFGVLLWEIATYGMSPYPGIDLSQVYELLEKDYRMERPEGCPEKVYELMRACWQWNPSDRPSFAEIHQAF
Protocol: (§1) 32D-p210 cells are plated into 96 well TC plates at a density of 15,000 cells per well. 50 μL of two fold serial dilutions of the test compound (Cmax is 40 μM) are added to each well (STI571 is included as a positive control). After incubating the cells for 48 hours at 37° C., 5% CO2, 15 μL of MTT (Promega) is added to each well and the cells are incubated for an additional 5 hours. The optical density at 570 nm is quantified spectrophotometrically and IC50 values, the concentration of compound required for 50% inhibition, determined from a dose response curve.
(§2) Compounds of the invention are tested for their antiproliferative effect on Ba/F3 cells expressing either wild type or the mutant forms of BCR-Abl (G250E, E255V, T3151, F317L, M351T) that confers resistance or diminished sensitivity to STI571. The antiproliferative effect of these compounds on the mutant-BCR-Abl expressing cells and on the non transformed cells were tested at 10, 3.3, 1.1 and 0.37 μM as described above (in media lacking IL3). The IC50 values of the compounds lacking toxicity on the untransformed cells were determined from the dose response curves obtained as describe above.

F317L Bcr-abl = biological target: T5, F317L Bcr-abl (Homo sapiens, UniProt P00519, F317L); experiment: Proliferation of Ba/F3 cells expressing mutant Bcr-abl F317L; format: cell-based
T5 construct: expressed in transfected cells; host or cells: Ba/F3; the other entry of the earlier key: BCR (P11274, Breakpoint cluster region protein)
Protocol: as §1, §2

E255V Bcr-abl = biological target: T6, E255V Bcr-abl (Homo sapiens, UniProt P00519, E255V); experiment: Proliferation of Ba/F3 cells expressing mutant Bcr-abl E255V; format: cell-based
T6 construct: expressed in transfected cells; host or cells: Ba/F3; the other entry of the earlier key: BCR (P11274, Breakpoint cluster region protein)
Protocol: as §1, §2

G250E Bcr-abl = biological target: T7, G250E Bcr-abl (Homo sapiens, UniProt P00519, G250E); experiment: Proliferation of Ba/F3 cells expressing mutant Bcr-abl G250E; format: cell-based
T7 construct: expressed in transfected cells; host or cells: Ba/F3; the other entry of the earlier key: BCR (P11274, Breakpoint cluster region protein)
T7 sequence (P00519 229-512 G250E limits assumed): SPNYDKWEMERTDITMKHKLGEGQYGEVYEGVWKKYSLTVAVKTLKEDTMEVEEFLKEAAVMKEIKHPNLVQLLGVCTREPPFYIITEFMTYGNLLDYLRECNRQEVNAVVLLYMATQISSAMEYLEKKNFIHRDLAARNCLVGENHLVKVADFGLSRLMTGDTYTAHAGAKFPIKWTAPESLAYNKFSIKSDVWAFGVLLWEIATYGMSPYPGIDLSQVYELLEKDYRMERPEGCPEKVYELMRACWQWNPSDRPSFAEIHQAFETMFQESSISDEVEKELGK
Protocol: as §1, §2

wild type Bcr-abl = biological target: T8, wild type Bcr-abl (Homo sapiens, UniProt P00519); experiment: Proliferation of Ba/F3 cells expressing wild type Bcr-abl; format: cell-based
T8 construct: expressed in transfected cells; host or cells: Ba/F3; the other entry of the earlier key: BCR (P11274, Breakpoint cluster region protein)
Protocol: as §1, §2

T2 sequence (P09619 600-962 limits assumed, change not shown): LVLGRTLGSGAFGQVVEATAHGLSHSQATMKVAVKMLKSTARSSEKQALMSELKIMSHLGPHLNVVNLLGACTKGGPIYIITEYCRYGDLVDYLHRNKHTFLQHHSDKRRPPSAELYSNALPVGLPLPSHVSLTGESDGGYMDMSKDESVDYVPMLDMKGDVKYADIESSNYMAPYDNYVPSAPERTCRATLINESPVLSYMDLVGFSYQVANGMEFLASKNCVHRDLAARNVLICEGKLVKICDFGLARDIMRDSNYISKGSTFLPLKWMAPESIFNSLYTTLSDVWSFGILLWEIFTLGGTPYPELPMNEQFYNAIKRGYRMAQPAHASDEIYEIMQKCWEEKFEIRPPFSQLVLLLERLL

Structure (SMILES)	GI50 (FLT3) [nM]	GI50 (PDGFRβ) [nM]	GI50 (FGFR3 [1]) [nM]	IC50 (FGFR3 [2]) [nM]	IC50 (M351T Bcr-abl) [nM]	IC50 (F317L Bcr-abl) [nM]	IC50 (E255V Bcr-abl) [nM]	IC50 (G250E Bcr-abl) [nM]	IC50 (wild type Bcr-abl) [nM]
CCN1CCN(Cc2ccc(C(=O)Nc3ccc(C)c(Nc4nccn4-c4cc(NC5CC5)ncn4)c3)cc2C(F)(F)F)CC1 [Compound 25, N-{3-[1-(6-Cyclopropylamino-pyrimidin-4-yl)-1H-imidazol-2-ylamino]-4-methyl-phenyl}-4-(4-ethyl-piperazin-1-ylmethyl)-3-trifluoromethyl-benzamide]	149	2	34	130					
Cc1ccc(NC(=O)c2ccc(CN3CCN(C)CC3)c(C(F)(F)F)c2)cc1Nc1nccn1-c1cc(NC2CC2)ncn1 [Compound 26, N-{3-[1-(6-Cyclopropylamino-pyrimidin-4-yl)-1H-imidazol-2-ylamino]-4-methyl-phenyl}-4-(4-methyl-piperazin-1-ylmethyl)-3-trifluoromethyl-benzamide]	89	2	37	65					
Cc1cn(-c2cc(C(=O)Nc3ccc(C)c(Nc4nccn4-c4cc(NC5CC5)ncn4)c3)cc(C(F)(F)F)c2)cn1 [Compound 27, N-{3-[1-(6-cyclopropylamino-pyrimidin-4-yl)-1H-imidazol-2-ylamino]-4-methyl-phenyl}-3-(4-methyl-imidazol-1-yl)-5-trifluoromethyl-benzamide]					< 0.5	< 0.5	36	20	< 0.5
